Values of other authors as cited in patent publication US20090191287A1, “Mitigation of Inflammation-Related Injuries” (priority 2008, published 2009).

How the values were obtained:
myocardium at risk = conditions: allopurinol-pretreated dogs, left anterior descending artery ligated; control group 23%
heart infarct = conditions: dogs pretreated with allopurinol; control dogs 40%
[1] = tested on: high-risk coronary surgery patients; conditions: high-risk coronary surgery patients pretreated before operating; placebo 17%

## Oc1ncnc2[nH]ncc12 [allopurinol]
Myocardium at risk
  myocardium at risk destroyed (myocardial necrosis): 9%
Heart infarct
  heart infarct size: 22%
[1]
  mortality rate: 4%
